Assay results taken from patent US20230374112A1, “Bioactive Collagen Peptides, Method Of Production Thereof, And Use Thereof” (CORPORATION GENACOL CANADA INC., priority 2020, published 2023).
Read-outs that look alike come from different tables or passages of the source. Non-standard residues stand in square brackets, D forms with d. Residues, ends and D or L forms follow the SMILES beside them. No end group written: not given here. Hyp = O=C(O)[C@@H]1C[C@@H](O)CN1

Key:
[1] = tested on: HIEC-6/HepG2 cell coculture system
Experimental: Based on the daily dose used in the clinical trials and the current recommendations of the bottle, 1200 mg of Genacol CH product (bovine) or a generic CH product (bovine) was added (3% w/v) to sterile ddH2O (Bernado & Azarcon, 2012; Bruyère et al., 2012; Feliciano et al., 2017). Three independent digestions for each CH product were completed. The vessels were placed in a 37° C. water bath, with continuous agitation. A pepsin solution was added, the pH adjusted to 2 and incubated for 30 min. Then, a bile solution was added, the pH adjusted to 7.5 and incubated for 90 min at 37° C. Pepsin (4% w/w protein basis) and pancreatin (4% w/w protein basis) were added (Aleman et al., 2013). The pancreatin digestion was stopped with the addition of NaOH, until the pH was 10 and the resulting digesta was cooled and frozen at −80° C. Digesta subsamples were taken and filtered using 0.2 μm syringe filters.
The final digesta was filtered using a molecular weight cut off (MWCO) of 10 kDa in a stirred Amicon™ ultrafiltration membrane reactor at 4° C. under a nitrogen gas pressure of 40 psi (Iskandar et al., 2015). The filtrates were freeze-dried at −50 to −60° C. and 0.85 mBar (0.64 mm Hg) (Gamma 1-16 LSC, Christ, Osterode am Harz, Germany) and stored at −80° C. until used in cell culture.
Two bovine-sourced CH products were used: Original Formula® (Genacol, Blainville, QC) (CH-GL) and a generic brand (such as Selection™, Uniprix, Quebec, Canada) (CH-GR). HIEC-6 (ATCC® CRL-3266™) and Hep G2 (ATCC® HB-8065™) cells were purchased from ATCC to represent the gastrointestinal and liver wall lining, respectively. HIEC-6 cells were cultured using OptiMEM™ 1 Reduced Serum Medium (Gibco Catalog No. 31985) with 20 mM HEPES, 10 mM GlutaMAX™ (Gibco Catalog No. 35050), 10 ng/mL Epidermal Growth Factor, 4% fetal bovine serum (FBS). HepG2 cells were grown using ATCC-formulated Eagle's Minimum Essential Medium (Catalog No. 30-2003), with 10% FBS. Cells were maintained at 37° C. with 90% relative humidity (RH) and 5% C02 in culture medium as described herein.
HIEC-6/HepG2 cell coculture system was used to determine the bioavailability of key bioactive peptides from CHs after digestion. HIEC-6 and HepG2 cells were cultured separately but then later combined in a transwell system.
HIEC-6 cells were seeded onto 24-well polyester (PET) ThinCert™ inserts from Greiner Bio-One (Kremsmünster, Austria) at a density of 1×10^5 cells/well. The medium was changed every 2 days and the cells were grown for a total of 8-9 days. Transepithelial electrical resistance (TEER) was measured using a volt-ohmmeter to assess integrity of monolayer. […] Three individual plate experiments were completed for each CH product.
At time 0, the apical medium was replaced with medium containing 2 mg/ml of freeze-dried CH dissolved in medium using either the Genacol (GL) peptide or the Generic (GR) CH products. HepG2 cells were added to the basolateral side of the transwell (1 million cells/mL). The plates were incubated for 2 h at 37° C., 5% C02. Subsamples were taken at time 0, and after 2 h.

Caco-2 cells = settings: cited from earlier work
[2] = human, in vivo, po, 80 mg/kg; cited from earlier work
[3] = target: dipeptidyl peptidase-4 (DPP-IV) (Homo sapiens, UniProt P27487); settings: literature; cited from earlier work
[4] = cited from earlier work

Chain of dipeptidyl peptidase-4 (DPP-IV) (P27487 whole entry, species assumed): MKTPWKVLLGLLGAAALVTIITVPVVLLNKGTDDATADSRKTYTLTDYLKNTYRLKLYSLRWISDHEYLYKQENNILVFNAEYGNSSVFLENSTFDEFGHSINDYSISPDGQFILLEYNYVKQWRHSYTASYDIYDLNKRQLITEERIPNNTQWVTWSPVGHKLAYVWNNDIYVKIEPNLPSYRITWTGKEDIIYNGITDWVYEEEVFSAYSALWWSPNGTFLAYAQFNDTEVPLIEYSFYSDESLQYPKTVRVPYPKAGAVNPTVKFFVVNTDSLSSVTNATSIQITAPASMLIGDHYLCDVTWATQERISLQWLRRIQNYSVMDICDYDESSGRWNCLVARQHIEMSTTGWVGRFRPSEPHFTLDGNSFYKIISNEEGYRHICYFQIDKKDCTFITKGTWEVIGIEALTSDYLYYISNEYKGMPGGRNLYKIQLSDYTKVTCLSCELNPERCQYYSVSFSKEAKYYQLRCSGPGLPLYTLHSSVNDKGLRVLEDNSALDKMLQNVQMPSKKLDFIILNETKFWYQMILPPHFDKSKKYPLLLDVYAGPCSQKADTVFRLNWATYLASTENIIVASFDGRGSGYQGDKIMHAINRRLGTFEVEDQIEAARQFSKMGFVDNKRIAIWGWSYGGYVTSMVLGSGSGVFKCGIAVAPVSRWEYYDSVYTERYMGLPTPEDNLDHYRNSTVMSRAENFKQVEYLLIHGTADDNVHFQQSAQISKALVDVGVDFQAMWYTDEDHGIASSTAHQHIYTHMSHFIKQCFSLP

| Compound | Peptide concentration, Basolateral T0 [1] | permeability ([4]; not told) | further results |
| --- | --- | --- | --- |
| C[C@H](N)C(=O)N1C[C@H](O)C[C@H]1C(=O)O [Ala-Hyp] (H-Ala-[Hyp]-OH; N-terminus and C-terminus assumed) | 0 ± 0 µg/mL |  |  |
| NCC(=O)N1CCC[C@H]1C(=O)N1C[C@H](O)C[C@H]1C(=O)O [Gly-Pro-Hyp] (H-Gly-Pro-[Hyp]-OH; N-terminus and C-terminus assumed) | 0 ± 0 µg/mL |  | percentage transported across the cell monolayer (Caco-2 cells): 3.59%; greatest content found in the blood [2]: ~22 µM; time of peak blood content [2]: 1 h |
| NCC(=O)N1CCC[C@H]1C(=O)O [Gly-Pro] (H-Gly-Pro-OH; N-terminus and C-terminus assumed) | 0 ± 0 µg/mL |  |  |
| O=C(O)[C@@H]1C[C@@H](O)CN1C(=O)[C@@H]1CCCN1 [Pro-Hyp] (H-Pro-[Hyp]-OH; N-terminus and C-terminus assumed) | 0 ± 0 µg/mL |  |  |
| Gly-Ala-[Hyp] |  |  | activity against DPP-IV [3]: only Gly-Pro-Hyp showed any activity |
| Gly-Pro-Ala |  |  | activity against DPP-IV [3]: only Gly-Pro-Hyp showed any activity |
| HLPLP |  | 0.018% |  |
| LPYPY |  |  | permeability ([4]; milk-derived peptides, literature): 0.05% |
| SDK |  | 21.68% |  |
| YPY |  | 5.56% |  |
